Assay results reported in patent publication US20180221369A1, “COMPOSITIONS AND METHODS FOR TREATING FIBROSING DISORDERS AND CANCER” (Cedars-Sinai Medical Center, priority 2014, published 2018).

How the values were obtained:
[1] = system: chronic pancreatitis stellate cells (hCP); test: Transwell migration assay with SDF-1, chronic pancreatitis stellate cells; format: cell-based, human; conditions: SDF-1 0.025 μM, 2 h; siRNA 100 nM 48 h, AMD3100 5-50 μM or INNO-406 10-100 nM 60 minutes
Description: (§1) The migration assays were performed by using transwell migration assays with polycarbonate membrane inserts with 8 μm pore size that is optimal for fibroblast-like cell migration (Corning Incorporated, NY, cat #3422). Stellate cells were treated with siRNA (100 nM) for 48 h, or with increasing concentrations of AMD3100 (5 μM-50 μM) or INNO-406 (10 nM-100 nM) for 60 minutes. Then, cells were placed in the migration upper chambers, in the presence or absence of SDF-1 (0.025 μM) with 2% FBS in the lower chambers. After 2 h of incubation, cells migrated to the lower chamber were counted, and the chemotactic index was determined as follows:
(§2) (number of cells migrating to SDF-1 chemokine)/(number of cells migrating to medium alone)
(§3) To distinguish chemotaxis versus chemokinesis, a control checkerboard analysis was performed.

[2] = system: normal stellate cells (hNP); conditions: SDF-1 0.025 μM, 2 h, AMD3100 5-50 μM 60 minutes
Description: as §1, §2, §3

[3] = 120 mg INNO-406/kg per day orally to mice; estimated according to previously described pharmacokinetic studies; cited from earlier work
[4] = system: cerulein-induced pancreatic fibrosis; test: Cerulein-induced pancreatic fibrosis (chronic pancreatitis) mouse model, Picro-Sirius Red quantitation; format: in vivo, C57BL/6J mice; conditions: cerulein plus 120 mg INNO-406/kg per day oral gavage for 6 weeks; cerulein alone 16.39+/−3.08%, untreated 2.00+/−0.84%
From the text: There is no optimal animal model available for human pancreatitis-induced fibrosis, to date. However, a most commonly used experimental model of chronic pancreatitis (CP) partially recapitulating human disease is repeated injection of cerulein into mice (Ulmasov, B. et al. Am J Pathol. 183, 692-708 (2013)). C57BL/6 is the most frequently used mouse strain for this type of biomedical research. In our current experiments, C57BL/6J mice (2 months old male and female) were divided into 3 groups (each group consisted of 15 animals) as follows: (1) untreated mice (saline only); (2) mice treated with cerulein for 6 weeks (50 μg/kg hourly, 6 hourly injections in one day constituted one treatment, twice-weekly); (3) mice treated with cerulein (as above) plus 120 mg INNO-406/kg per day for 6 weeks (oral gavage). When 120 mg INNO-406/kg per day is administrated orally to the mice, the concentration of INNO-406 in the soft tissues is estimated to be 0.24 μM according to pharmacokinetic studies described previously (Kimura, S. et al. Blood., 106, 3948-3954 (2005); Yokota, A, et al. Blood, 109, 306-314 (2007)). […] Picro sirius red quantitation were performed using Leica Biosystem Tissue IA Optimizer web-based program that measures positive stained intensity per area at 10× magnification. […]

Row | SMILES | SDF-1/CXCR4-induced chemotaxis (chemotactic index) [1] | SDF-1/CXCR4-induced chemotaxis (chemotactic index) [2] | concentration of INNO-406 in the soft tissues [3] [nM] | pancreatic fibrosis (Picro-Sirius Red positive stained area per total area) [4]
1 | c1cc(CN2CCCNCCNCCCNCC2)ccc1CN1CCCNCCNCCCNCC1 [AMD3100] | could be blocked | could be blocked | – | –
2 | Cc1ccc(NC(=O)c2ccc(CN3CC[C@H](N(C)C)C3)c(C(F)(F)F)c2)cc1Nc1nccc(-c2cncnc2)n1 [INNO-406, Bafetinib] | – | – | 240 | 7.50+/−4.77%
